Entries after “also recorded” stand apart in the source; their conditions may differ. One block for each compound: values may come before it.
How the values were obtained:
[1] = system: eIF2-GTP-Met-tRNAi ternary complex; assay: Ternary complex / ATF-4 dual luciferase assay in human cancer cell lines co-transfected with tTA and pBISA-DL(ATF-4) (CRL-2351, PC-3, CRL-2813); assay type: cell-based; conditions: CRL-2351 cell line
Method: FIGS. 8A-8D depict that N,N′-diarylureas reduce the availability of the eIF2-GTP-Met-tRNAi ternary complex in human cancer cells. A-C) PC-3, CR-L2351, and CRL-2813 human cancer cell lines were co-transfected with pBISA-DL^(ATF-4) and ptTA plasmids. One day post-transfection, the cells were treated with the indicated concentrations of N,N′-diarylureas. Firefly/renilla ratio was determined by DLR assay 8 hours after treatment. D) PC-3, CR-L2351, and CRL-2813 human cancer cell lines were treated with the indicated concentrations of N,N′-diarylureas four 8 hours, and expression of endogenous CHOP mRNA was determined by real-time PCR.
(§1) For example, reducing amount of the ternary complex increases translation of ATF-4, which results in elevated expression of CHOP mRNA and protein. Therefore, expression of endogenous CHOP mRNA and CHOP protein in KLN-tTA/pBISA-DL^(ATF-4) cells were utilized as secondary assays to validate N,N′-diarylurea compounds as modifiers of the eIF2⋅GTP⋅Met-tRNAi ternary complex. […] To rule out the possibility that the activity of N,N′-diarylurea compounds was confined to a single cell type, the effects of these compounds on the ternary complex assay and the expression of CHOP mRNA was assayed in CRL-2351, PC-3, CRL-2813 human breast, prostate, and melanoma cancer cell lines respectively. For the reporter gene assay, the three human cell lines were co-transfected with tTA expression vector and the pBISA-DL^(ATF-4) dual luciferase expression vector shown in FIG. 6. […] The expression of CHOP mRNA was assayed by real time PCR in the same cell lines treated with 5 or 20 μM of each compound. […]
Stable and transient transfection: Cells were seeded at the density of 10^5 in 60-mm (stable transfection) or 10^4 cells per well of 96-well plate (transient transfection) plates and transfected one day later using the Qiagen Transfectamine transfection kit. For selection of stable cell lines, transfected cells were transferred to 100-mm plates and selected with appropriate antibiotics.
Dual luciferase assay: Cells or minced tumors expressing firefly and renilla luciferases were lysed and the extracts assayed with a glow type dual luciferase assay kit, per manufacturer's instruction (Promega Inc., Madison, Wis.).

[2] = Solubility in solvents during purification; assay type: physicochemical; conditions: crude product
Method: Because it could not be purified, this compound was removed from the structure-activity relationship (SAR) study.
As another non-limiting example, 3,4-dichlorophenylisocyanate (250 mg, 1.330 mmol) and 2-amino-4-hydroxy-6-methylpyrimidine (166 mg, 1.330 mmol) were used following the general procedure E to synthesize 28.

[3] = system: eIF2-GTP-Met-tRNAi ternary complex; assay: Ternary complex assay (dual luciferase, firefly/renilla ratio) in stable KLN-tTA/pBISA-DL(ATF-4) cells; HTS and hit confirmation; assay type: cell-based, mouse; conditions: designation in figure legend
[4] = system: PC-3 human prostate cancer cells; assay: Cell proliferation, SRB assay, PC-3; assay type: cell-based; conditions: read-out: IC50 (concentration that inhibits cell proliferation by 50%)
Method: Reduced availability of the ternary complex causes inhibition of translation initiation and thereby of cell proliferation. […] The effects of N,N′-diarlyureas on the proliferation KLN mouse squamous cell carcinoma, CRL-2351 human breast, CRL-2813 human melanoma, A549 human lung and PC-3 human prostate cancer cell lines were tested.
To determine if N,N′-diarylureas inhibit cell proliferation by reducing the availability of the ternary complex, the effect of N,N′-diarylureas on proliferation of previously described transgenic PC-3 human prostate cancer cell lines expressing either the non-phosphorylatable eIF2α-S51A mutant or the eIF2α-WT was studied. […] Reducing the expression of HRI, the eIF2α kinase that mediates N,N′-diarlyurea induced phosphorylation of eIF2α similarly abrogates the effect of these agents on cell proliferation (FIGS. 15C and 15D).
Cell Growth Assay: Cell growth was measured by the SRB assay.

CHOP = assay: Expression of endogenous CHOP mRNA (real time PCR) and CHOP protein (Western blot); assay type: cell-based, mouse and human; conditions: siRNA against HRI
Text: as §1
Real time PCR: For real time PCR, total RNA was extracted with TaqMan Gene Expression Cells-to-Ct™ Kit (Applied Biosystems, Branchburg, N.J.) according to manufacturer's protocol. […] To calibrate the results, all the transcripts quantities were normalized to 18S rRNA (was 18S ribosomal RNA-like mRNA in mouse). […]

HRI = assay: Activation of HRI in cell-free lysates (phosphorylation of eIF2α, Western blot); assay type: biochemical, rabbit and human; conditions: lysates of CRL-2813 cells or heme-supplemented rabbit reticulocytes, 30 minutes at 37° C.
Method: FIGS. 14A and 14B depict that N,N′-diarylurea compounds activate HRI in cell free lysates. A and B) Heme supplemented rabbit reticulocyte (a) or in-house prepared human melanoma cancer cell lysates (b) were incubated with the indicated concentration of compound 1781 for 30 minutes at 37° C. and phosphorylation of eIF2α was determined by Western blot analysis.
Compound #1781 was added to lysates of CRL-2813 cells or heme-supplemented rabbit reticulocytes and phosphorylation of eIF2α by Western blot was determined.

[5] = In vivo toxicity in female nude mice (body weight, food consumption, necropsy)
Method: Five female nude mice each were treated with 200 mg/kg, 100 mg/kg #1781 in 15 μl DMSO or 15 μl DMSO daily for seven days. Mice were observed daily for signs of toxicity and weighed every other day for total of 15 days and then necropsy was performed. The average body of each group is plotted against the time.
To study toxicity effects, mice were treated with various doses of compound #1781 or vehicle.

[6] = system: eIF2-GTP-Met-tRNAi ternary complex; assay: Ternary complex assay (dual luciferase, firefly/renilla ratio) in stable KLN-tTA/pBISA-DL(ATF-4) cells; HTS and hit confirmation; assay type: cell-based, mouse; conditions: for Induction of F-luc/R-luc ratio after knockdown of HRI: siRNA against HRI

SMILES: O=C(Nc1cc(C(F)(F)F)cc(C(F)(F)F)c1)Nc1ncccc1O [Compound 28]
ATF-4 Cmax (concentration corresponding to the maximal activity) [1]: 40 µM
Solubility in solvents [2]: not soluble in any solvent; also recorded: wasn't soluble in any solvent tested

IC50 [4]: 8.3 µM
SMILES: O=C(Nc1ccc(Cl)c(Cl)c1)Nc1cc([N+](=O)[O-])ccc1Cl [Compound 1527]
Active or inactive N,N′-diarylurea (ternary complex assay) [3]: inactive

SMILES: O=C(Nc1ccc(Cl)c(Cl)c1)Nc1ccc2nnsc2c1 [Compound 1781]
Induction of CHOP mRNA after knockdown of HRI (CHOP): abrogated induction of CHOP mRNA
Phosphorylation of eIF2α in cell lysates (HRI): caused phosphorylation of eIF2α in cell lysates in a dose dependent manner
Apparent in vivo toxicity ([5]; 200 mg/kg or 100 mg/kg daily for seven days, female nude mice, observed 15 days): no apparent in vivo toxicity
Effect on weight gain or food consumption ([5]; seven consecutive day administration, up to 200 mg/kg, mice): no adverse effect on weight gain or food consumption
Induction of F-luc/R-luc ratio after knockdown of HRI [6]: significantly abrogated
Induction of F-luc/R-luc ratio after knockdown of HRI ([6]; listed as 1181): almost completely abrogated
Induction of F-luc/R-luc ratio after knockdown of PKR, PERK or GCN2 ([6]; siRNA against PKR, PERK, GCN2, individually or combined): no effect
